Patent US7223797B2, “Meldonium salts, method of their preparation and pharmaceutical composition on their basis” (Joint Stock Company “Grindeks”, priority 2003, dated 2007)

Columns and labels:
[1] = Sample hygroscopicity test: H2O content before and after 24 hours at 100% humidity; format: physicochemical; conditions: for H2O content after 24 hours maintenance at 100% humidity: closed vessel over water; for H2O content after 24 hours maintenance at 100% humidity / Initial H2O content in the sample: Fischer titration; for Initial H2O content in the sample: before the test; for hygroscopicity (in words): qualitative statement
Description: Sample hygroscopicity was tested by H2O content determination before the test and after 24 hours maintenance at 100% humidity (keeping in a closed vessel over water). On such conditions, Meldonium absorbs 10% water (as to mass increase) during 24 hours. Water content was determined by titration by Fischer's method; in cases of syrup formation water content is determined by sample mass increase.

[2] = Thermal / storage stability; format: physicochemical; conditions: qualitative statement
[3] = humans; cited from earlier work
[4] = rats; cited from earlier work

Row | Molecule | H2O content after 24 hours maintenance at 100% humidity [1] | Initial H2O content in the sample [1] | Sample mass increase due to absorbed water ([1]; 24 hours at 100% humidity) | other results
1 | C[N+](C)(C)NCCC(=O)O.C[N+](C)(C)NCCC(=O)O.NCCS(=O)(=O)[O-].NCCS(=O)(=O)[O-].O.O.O [Meldonium 2-aminoethane sulfonate (taurate; 1:1; ×1.5H2O)] | 17.0854% | 9,4824% |  | 
2 | C[N+](C)(C)NCCC(=O)[O-] [Meldonium orotate (1:1)] | remains unchanged | 0.3919% |  | 
3 | acetate [reference compound] |  |  |  | hygroscopicity (in words) [1]: hygroscopic
4 | C[N+](C)(C)NCCC(=O)O.NC(CC(=O)O)C(=O)[O-].O.O [Meldonium L-(+)-aspartate (1:1; ×2H2O)] |  | 12.5% | 18% | 
5 | C[N+](C)(C)NCCC(=O)[O-].O.O.O=C([O-])CCC(=O)[O-].[Mg+2] [Meldonium magnesium succinate (1:1:1; ×2H2O)] |  | 10.1215% | 20% | 
6 | C[N+](C)(C)NCCC(=O)O.O=C([O-])C(=O)O [Meldonium oxalate (1:1)] | 3.1211% | 0.1661% |  | 
7 | CC(O)C(=O)O.C[N+](C)(C)NCCC(=O)[O-] [Meldonium lactate (1:1)] |  |  |  | hygroscopicity (in words) [1]: hygroscopic
8 | C[N+](C)(C)NCCC(=O)[O-].O=C(O)C=CC(=O)O [Meldonium fumarate (1:1)] | remains unchanged | 0.18% |  | 
9 | C[N+](C)(C)NCCC(=O)O.O=C([O-])C(Cl)Cl [Meldonium dichloroacetate (1:1)] |  | 1.17% | 12% | 
10 | C[N+](C)(C)NCCC(=O)O.O=P([O-])(O)O [Meldonium phosphate (1:1)] | remains unchanged | 0.0762% |  | 
11 | C[N+](C)(C)NCCC(=O)O.O.O=C([O-])c1cc2ccccc2c(Cc2c(O)c(C(=O)O)cc3ccccc23)c1O [Meldonium pamoate (1:1; ×H2O)] |  | 1.71% | 9% | 
12 | C[N+](C)(C)NCCC(=O)[O-].C[N+](C)(C)NCCC(=O)[O-].O.O=C(O)C(O)C(O)C(O)C(O)C(=O)O (stereo not shown) [Meldonium mucate (galactarate; 2:1; ×H2O)] | 7.6830% | 3.0414% |  | 
13 | C[N+](C)(C)NCCC(=O)[O-] [anhydrous form of Meldonium, reference compound] |  |  |  | stability (in words) [2]: unstable; hygroscopicity (in words) [1]: extremely hygroscopic
14 | C[N+](C)(C)NCCC(=O)[O-].O=C(O)C(O)C(O)C(O)C(O)C(=O)O (stereo not shown) [Meldonium mucate (galactarate; 1:1)] | 12.8% | 1.98% |  | 
15 | C[N+](C)(C)NCCC(=O)O.C[N+](C)(C)NCCC(=O)O.O=S(=O)([O-])[O-] [Meldonium sulfate (2:1)] |  | 0.313% | 11.8% | 
16 | C[N+](C)(C)NCCC(=O)O.O=S(=O)([O-])O [Meldonium sulfate (1:1)] |  | 1.4189% | 20% | 
17 | Meldonium sulfate |  |  |  | hygroscopicity (in words) [1]: hygroscopic
18 | C[N+](C)(C)NCCC(=O)O.O=C([O-])C=CC(=O)O [Meldoniuma maleate (1:1)] | 4.6844% | 0.387% |  | 
19 | CN(CC(=O)O)C(=N)N.C[N+](C)(C)NCCC(=O)[O-].O.O.O [Meldonium creatinate (1:1; ×3H2O)] |  | 15.8% | 18% | 
20 | citrate |  |  |  | hygroscopicity (in words) [1]: hygroscopic
21 | C[N+](C)(C)NCCC(=O)O.O.O.O=C([O-])CC(O)(CC(=O)[O-])C(=O)[O-].[Mg+2] [Meldonium magnesium citrate (1:1:1; ×2H2O)] |  | 9.45% |  | State of the sample after maintenance at 100% humidity ([1]; 24 hours at 100% humidity): the sample diffused
22 | Cl [hydrogen chloride, reference compound] |  |  |  | hygroscopicity (in words) [1]: hygroscopic
23 | C[N+](C)(C)NCCC(=O)[O-] [Meldonium, 3-(2,2,2-trimethylhydrazinium) propionate] |  |  |  | stability (in words) [2]: not very stable; half-elimination period [3]: 4 to 10 h; half-elimination period compared with humans [4]: longer
24 | C[N+](C)(C)NCCC(=O)[O-].C[N+](C)(C)NCCC(=O)[O-].O=C(O)C=CC(=O)O [Meldonium fumarate (2:1)] | 13.4707% | 1.5136% |  | 
25 | C[N+](C)(C)NCCC(=O)[O-].C[N+](C)(C)NCCC(=O)[O-].O=C(O)C=CC(=O)O [Meldonium maleate (2:1)] |  | 1.3595% | 18% | 
